Reference: PubChem BioAssay AID504489 (Sanford-Burnham Center for Chemical Genomics, 2011)
Activity calls are given as the source filed them.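 The calls were made as follows: active = IC50 at or below 20 µM; inactive = the rest.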

Each compound was assayed on 697 B-cell NF-kB luciferase, PMA/ionomycin, luminescence 16 h (assay: inhibition of PMA/ionomycin-stimulated NF-kB luciferase reporter, SAR follow-up, B- and T-cell screen hits, 697 cells, luminescence (AID 504489)).
`O=S(=O)(Nc1cccc2cccnc12)c1ccccc1` showed an IC50 of 1.4 µM. For `COc1cc(N)c2ncccc2c1`, the IC50 was > 79 µM (inactive). Work on `Cc1ccc(S(=O)(=O)Nc2cccc3ccc(C)nc23)cc1` yielded an IC50 of 2.74 µM. With `Nc1cccc2cccnc12` the IC50 was > 79 µM (inactive). With `Cc1ccc2cccc(NS(=O)(=O)c3ccccc3)c2n1` the IC50 was > 79 µM (inactive). In the case of `COc1cc(NS(=O)(=O)c2ccccc2)c2ncccc2c1`, the IC50 is reported as 1.29 µM. In the case of `Cc1ccc2cccc(N)c2n1`, the IC50 is reported as > 79 µM (inactive). `COc1cc(NS(=O)(=O)c2ccc(C)cc2)c2ncccc2c1` was tested, and the IC50 was 2.58 µM. Compound `Cc1ccc(S(=O)(=O)Nc2cccc3cccnc23)cc1` has an IC50 of 2.21 µM.
